Test results published in publication PMC11641208, “Advanced PROTAC and Quantitative Proteomics Strategy Reveals Bax Inhibitor-1 as a Critical Target of Icaritin in Burkitt Lymphoma” (International Journal of Molecular Sciences, 2024).

Target: T1, Bax inhibitor-1 (BI-1) (Homo sapiens, UniProt P55061)
T1 construct: gene TMBIM6
Test: SPR (Biacore T200, BI-1 immobilised on CM5 chip, kinetic […] fit)
Format: binding

T1 sequence (P55061 whole entry): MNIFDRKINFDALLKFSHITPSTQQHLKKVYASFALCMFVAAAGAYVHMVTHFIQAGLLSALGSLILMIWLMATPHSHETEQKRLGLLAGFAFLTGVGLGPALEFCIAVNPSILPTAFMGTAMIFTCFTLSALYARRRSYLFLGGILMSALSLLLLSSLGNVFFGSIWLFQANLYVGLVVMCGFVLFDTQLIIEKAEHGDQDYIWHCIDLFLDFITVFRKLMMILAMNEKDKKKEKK

Kd: 79.7 µM
Compound: C#CCOc1cc(O)c2c(=O)c(OCCOCCOCCOCC(=O)NCCCCCC(=O)Nc3cccc4c3CN(C3CCC(=O)NC3=O)C4=O)c(-c3ccc(OC)cc3)oc2c1CC=C(C)C (stereo not shown) [compound 10, LJ-41]
